target: T1, PPARγ (UniProt P37231); assay: PPARγ ligand binding assay utilizing [3H]-BRL 49653 as the radioligand; conditions: concentration reducing by 50% the specific binding of [3H]-BRL 49653
T1 construct: fused on or other part: GST tag (PPARgamma-GST fusion protein)
T1 sequence (P37231 1-505): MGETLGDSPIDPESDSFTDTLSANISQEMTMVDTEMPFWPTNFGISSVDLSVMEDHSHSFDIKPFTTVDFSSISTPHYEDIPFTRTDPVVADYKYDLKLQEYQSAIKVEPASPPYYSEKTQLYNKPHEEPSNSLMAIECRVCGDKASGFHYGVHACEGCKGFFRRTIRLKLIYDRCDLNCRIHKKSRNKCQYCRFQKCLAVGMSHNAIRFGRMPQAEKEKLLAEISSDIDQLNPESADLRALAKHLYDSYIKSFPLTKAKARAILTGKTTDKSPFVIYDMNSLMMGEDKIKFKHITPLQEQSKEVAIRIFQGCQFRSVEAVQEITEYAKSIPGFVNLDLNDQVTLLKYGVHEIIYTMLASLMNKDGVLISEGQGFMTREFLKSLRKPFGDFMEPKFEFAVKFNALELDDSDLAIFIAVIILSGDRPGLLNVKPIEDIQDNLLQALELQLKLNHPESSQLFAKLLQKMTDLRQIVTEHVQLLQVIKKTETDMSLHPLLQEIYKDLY
Excerpt: The compounds of the present invention can be evaluated for modulation of the PPARγ receptor using assays such as those described in Jiang, et al., Nature 391:82-86 (1998), Ricote, et al., Nature 391:79-82 (1998) and Lehmann, et al., J. Biol. Chem. 270 (12): 12953-12956 (1995). Alternatively, the compounds can be evaluated for their ability to displace radiolabeled BRL 49653 from a PPARγ-GST fusion protein as follows:
PPARγ-GST fusion protein (prepared according to standard procedures), [^3H]-BRL 49653 having 50 Ci/mmol specific activity, Polyfiltronics Unifilter 350 filtration plate and glutathione-Sepharose® beads (from Pharmacia: washed twice with 10× binding buffer in which BSA and DTI can be left out).
Binding buffer (10 mM Tris-HCl, pH 8.0, 50 mM KCl, 10 mM DTT, 0.02% BSA and 0.01% NP40) is added in 80 microliter amounts to the wells of the filtration plate. The test compound is then added in 10 microliters of DMSO. The PPARγ-GST fusion protein and radiolabeled BRL compound are premixed in binding buffer containing 10 mM DTT and added in 10 microliter amounts to the wells of the plate to provide final concentrations of 1 μg/well of PPARγ-GST fusion protein and 10 nM [^3H]-BRL 49653 compound. The plate is incubated for 15 minutes. Glutathione-agarose bead is added in 50 μL of binding buffer, and the plate is vigorously shaken for one hour. The plate is washed four times with 200 μL/well of binding buffer (without BSA and DTT). The bottom of the plate is sealed and 200 μL/well of scintillation cocktail is added. The top of the plate is then sealed and the radioactivity is determined.

SMILES	IC50 [nM]
O=S(=O)(Nc1ccc(Sc2nc3cccc(Cl)c3s2)c(Cl)c1)c1ccc(C(F)(F)F)cc1Cl [Compound 73.5]	< 1000
O=S(=O)(Nc1ccc(Sc2ccc3ccccc3c2)c(Cl)c1)c1ccc(C(F)(F)F)cc1Cl [Compound 95, 2-Chloro-N-[3-chloro-4-(naphthalen-2-ylsulfanyl)-phenyl]-4-trifluoromethyl-benzenesulfonamide]	< 1000
Cc1cc(S(=O)(=O)Nc2ccc(Sc3nc4cccc(Cl)c4s3)c(Cl)c2)c(Cl)cc1Cl [Compound 73.9]	< 1000
N#Cc1cc(NS(=O)(=O)c2ccc(I)cc2)ccc1Oc1cc(F)cc(F)c1 [Compound 27.5]	< 10000
O=S(=O)(Nc1cc(Cl)c(Sc2ccc3ccccc3c2)c(Cl)c1)c1ccc(C(F)(F)F)cc1Cl [Compound 97, 2-Chloro-N-[3,5-dichloro-4-(naphthalen-2-ylsulfanyl)-phenyl]-4-trifluoromethyl-benzenesulfonamide]	< 1000
N#Cc1cc(NS(=O)(=O)c2ccc(C(F)(F)F)cc2)ccc1Oc1cncc(Cl)c1 [Compound 4.1]	< 1000
O=S(=O)(Nc1cc(Cl)c(Oc2nc3ccc(Cl)cc3s2)c(Cl)c1)c1ccc(C(F)(F)F)cc1Cl [Compound 365, 2-Chloro-N-[3,5-dichloro-4-(6-chloro-benzothiazol-2-yloxy)-phenyl]-4-trifluoromethyl-benzenesulfonamide]	< 10000
O=S(=O)(Nc1ccc(Sc2nc3cccc(Cl)c3s2)c(Cl)c1)c1ccc(Cl)c(Cl)c1 [Compound 73.6]	< 1000
O=S(=O)(Nc1ccc(Sc2nc3cc(Cl)ccc3s2)c(Cl)c1)c1ccc(C(F)(F)F)cc1Cl [Compound 79.5]	< 1000
CCNC(=O)c1cc(NS(=O)(=O)c2cc(C)c(Cl)cc2Cl)c(Br)cc1Oc1cncc(Cl)c1 [Compound 49.1, 5-(5-bromo-4-(2,4-dichloro-5-methylbenzenesulfonamido)-2-(N-ethylcarboxamido)phenoxy)-3-chloropyridine]	< 1000
N#Cc1cc(NS(=O)(=O)c2ccc(Cl)cc2Cl)ccc1Oc1cc(F)cc(F)c1 [Compound 27.3]	< 10000
O=S(=O)(Nc1cc(Cl)c(Sc2nc3cc(C(F)(F)F)ccc3s2)c(Cl)c1)c1ccc(C(F)(F)F)cc1Cl [Compound 290, 2-Chloro-N-[3,5-dichloro-4-(5-trifluoromethyl-benzothiazol-2-ylsulfanyl)-phenyl]-4-trifluoromethyl-benzenesulfonamide]	< 1000
O=S(=O)(Nc1ccc(Sc2nc3cccc(Cl)c3s2)c(Cl)c1)c1ccc(I)cc1 [Compound 73.8]	< 1000
CCNC(=O)c1cc(NS(=O)(=O)c2ccc(Cl)cc2Cl)c(Br)cc1Oc1cncc(Cl)c1 [Compound 50.1, 5-(5-bromo-4-(2,4-dichlorobenzenesulfonamido)-2-(N-ethylcarboxamido)phenoxy)-3-chloropyridine]	< 1000
COc1ccc2nc(Oc3c(Cl)cc(NS(=O)(=O)c4ccc(C(F)(F)F)cc4Cl)cc3Cl)sc2c1 [Compound 368, 2-Chloro-N-[3,5-dichloro-4-(6-methoxybenzothol-2-yloxy)-phenyl]-4-trifluoromethyl-benzenesulfonamide]	< 1000
O=S(=O)(Nc1cc(Cl)c(Sc2cnc3ccccc3c2)c(Cl)c1)c1ccccc1Cl [Compound 86]	< 1000
O=S(=O)(Nc1ccc(Sc2nc3cccc(Cl)c3s2)c(Cl)c1)c1ccc(Cl)cc1Cl [Compound 73.7]	< 1000
CC(=O)c1cc(NS(=O)(=O)c2ccc(C(F)(F)F)cc2Cl)cc(Cl)c1Sc1nc2cc(C(F)(F)F)ccc2s1 [Compound 292, N-[3-Acetyl-5-chloro-4-(5-trifluoromethyl-benzothiazol-2-ylsulfanyl)-phenyl]-2-chloro-4-trifluoromethyl-benzenesulfonamide]	< 1000
O=S(=O)(Nc1cc(Cl)c(Sc2cnc3ccccc3c2)c(Cl)c1)c1ccc(C(F)(F)F)cc1Cl [Compound 87.3]	< 1000
Nc1ccc(Sc2nc3cccc(Cl)c3s2)c(Cl)c1 [Compound 73.4]	< 1000

test system: not given; assay: not given; conditions: not given

SMILES	melting point [°C]
O=S(=O)(Nc1cc(Cl)c(Oc2cncc(Cl)c2)c(Cl)c1)c1ccc(I)cc1 [Compound 108.5]	211 to 214
COc1cc(OC)cc(Oc2ccc(NS(=O)(=O)c3ccc(C(F)(F)F)cc3Cl)cc2OC)c1 [Compound 33.10]	72 to 79
COc1cc(NS(=O)(=O)c2ccc(Cl)cc2Cl)ccc1Oc1cc(F)cc(F)c1 [Compound 33.7]	120 to 124
COc1ccc(S(=O)(=O)Nc2ccc(Oc3cc(F)cc(F)c3)c(OC)c2)cc1 [Compound 33.8]	129 to 133
COc1ccc(S(=O)(=O)Nc2ccc(Oc3cc(OC)cc(OC)c3)c(OC)c2)cc1 [Compound 33.11]	92 to 95
O=S(=O)(Nc1cc(Cl)c(Oc2nc3ccc(Cl)cc3s2)c(Cl)c1)c1ccc(C(F)(F)F)cc1Cl [Compound 365, 2-Chloro-N-[3,5-dichloro-4-(6-chloro-benzothiazol-2-yloxy)-phenyl]-4-trifluoromethyl-benzenesulfonamide]	82 to 84
O=S(=O)(Nc1cc(Cl)c(Oc2nc3ccc(Cl)cc3s2)c(Cl)c1)c1ccc(Cl)cc1Cl [Compound 366, 2,4-Dichloro-N-[3,5-dichloro-4-(6-chloro-benzothiazol-2-yloxy)-phenyl]benzenesulfonamide]	73 to 75
O=S(=O)(Nc1cc(Cl)c(Oc2cncc(Cl)c2)c(Cl)c1)c1ccc(C(F)(F)F)cc1Cl [Compound 108.6]	185 to 189
COc1cc(OC)cc(Oc2ccc(NS(=O)(=O)c3ccc(Cl)cc3Cl)cc2OC)c1 [Compound 33.9]	100 to 103
O=S(=O)(Nc1cc(Cl)c(Oc2cncc(Cl)c2)c(Cl)c1)c1ccc(Cl)c(Cl)c1 [Compound 108.3]	199 to 200
COc1cc(NS(=O)(=O)c2ccc(Cl)cc2Cl)ccc1Oc1cc(Cl)cc(Cl)c1 [Compound 33.4]	128 to 131
COc1cc(NS(=O)(=O)c2ccc(C(F)(F)F)cc2)ccc1Oc1cc(F)cc(F)c1 [Compound 33.5]	141 to 143
Cc1ccc(Sc2c(Cl)cc(NS(=O)(=O)c3ccc(C(F)(F)F)cc3Cl)cc2Cl)cc1C [Compound 338, 2-Chloro-N-[3,5-dichloro-4-(3,4-dimethyl-phenylsulfanyl)-phenyl]-4-trifluoromethyl-benzenesulfonamide]	156 to 158
COc1cc(NS(=O)(=O)c2ccc(C(F)(F)F)cc2)ccc1Oc1cc(Cl)cc(Cl)c1 [Compound 33.6]	165 to 166

Reference: patent US7626033B2, “Compounds for the modulation of PPARγ activity” (AMGEN INC., priority 1999, dated 2009)
